Assay results: ChEMBL document CHEMBL1201862, “PubChem BioAssay data set” (2004)
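Interpolation was linear, between the two tested concentrations surrounding the appropriate level; five concentrations were tested over 48 hours in 96-well plates. GI50 marks 50% less growth.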 The source made the active and inactive calls. Cut-off read from the data, not from the text of the source: active = GI50 up to about 1.1 µM and inactive = higher. Where a SMILES comes first, the peptide text is derived from it. [ ]: non-standard residue; d: D form. The star is where a group is joined. Bn2Val = CC(C)[C@@H](C(=O)*)N(Cc1ccccc1)Cc1ccccc1; NHPiperonyl = c1cc2c(cc1CN*)OCO2; NMeV = CN[C@H](C(=O)O)C(C)C; dNMeA = CN[C@H](C)C(=O)O

Columns and labels:
Assay in all cases: DTP human tumour cell line panel, 48 h
[1] = tested on: 786-0
[2] = tested on: A498
[3] = tested on: ACHN
[4] = tested on: CAKI-1
[5] = tested on: CCRF-CEM
[6] = tested on: COLO 205
[7] = tested on: DU-145
[8] = tested on: EKVX
[9] = tested on: HCC 2998
[10] = tested on: HCT-15
[11] = tested on: HL-60
[12] = tested on: HOP-62
[13] = tested on: HOP-92
[14] = tested on: HT-29
[15] = tested on: Hs-578T
[16] = tested on: IGROV-1
[17] = tested on: K562
[18] = tested on: KM12
[19] = tested on: LOX IMVI
[20] = tested on: M14
[21] = tested on: MCF7
[22] = tested on: MDA-MB-231
[23] = tested on: MDA-MB-435
[24] = tested on: MDA-N
[25] = tested on: MOLT-4
[26] = tested on: Malme-3M
[27] = tested on: NCI-H226
[28] = tested on: NCI-H23
[29] = tested on: NCI-H460
[30] = tested on: NCI-H522
[31] = tested on: NCI/ADR-RES
[32] = tested on: OVCAR-3
[33] = tested on: OVCAR-4
[34] = tested on: OVCAR-5
[35] = tested on: OVCAR-8
[36] = tested on: PC-3
[37] = tested on: RPMI-8226
[38] = tested on: RXF 393
[39] = tested on: SF-295
[40] = tested on: SF-539
[41] = tested on: SK-MEL-28
[42] = tested on: SK-MEL-2
[43] = tested on: SK-MEL-5
[44] = tested on: SK-OV-3
[45] = tested on: SN12C
[46] = tested on: SNB-19
[47] = tested on: SNB-75
[48] = tested on: SR
[49] = tested on: SW-620
[50] = tested on: T47D
[51] = tested on: TK-10
[52] = tested on: U-251
[53] = tested on: UACC-257
[54] = tested on: UO-31
[55] = tested on: A549
[56] = tested on: BT-549
[57] = tested on: HCT-116
[58] = tested on: SF-268
[59] = tested on: UACC-62

Structure (SMILES): CC(C)(Cl)C(Br)CCC(Br)(CCl)C(Cl)CBr (stereo not given)
- GI50 [1]: > 10 µM (inactive)
- GI50 [2]: > 10 µM (inactive)
- GI50 [3]: > 10 µM (inactive)
- GI50 [4]: > 10 µM (inactive)
- GI50 [5]: > 10 µM (inactive)
- GI50 [6]: > 10 µM (inactive)
- GI50 [7]: > 10 µM (inactive)
- GI50 [8]: > 10 µM (inactive)
- GI50 [9]: > 10 µM (inactive)
- GI50 [10]: > 10 µM
- GI50 [11]: > 10 µM (inactive)
- GI50 [12]: > 10 µM (inactive)
- GI50 [13]: > 10 µM (inactive)
- GI50 [14]: > 10 µM (inactive)
- GI50 [15]: > 10 µM (inactive)
- GI50 [16]: > 10 µM (inactive)
- GI50 [17]: > 10 µM (inactive)
- GI50 [18]: > 10 µM (inactive)
- GI50 [19]: > 10 µM (inactive)
- GI50 [20]: > 10 µM (inactive)
- GI50 [21]: > 10 µM (inactive)
- GI50 [22]: > 10 µM (inactive)
- GI50 [23]: > 10 µM (inactive)
- GI50 [24]: > 10 µM (inactive)
- GI50 [25]: > 10 µM (inactive)
- GI50 [26]: > 10 µM (inactive)
- GI50 [27]: > 10 µM (inactive)
- GI50 [28]: > 10 µM (inactive)
- GI50 [29]: > 10 µM (inactive)
- GI50 [30]: > 10 µM (inactive)
- GI50 [31]: > 10 µM (inactive)
- GI50 [32]: > 10 µM (inactive)
- GI50 [33]: > 10 µM (inactive)
- GI50 [34]: > 10 µM (inactive)
- GI50 [35]: > 10 µM (inactive)
- GI50 [36]: > 10 µM (inactive)
- GI50 [37]: > 10 µM (inactive)
- GI50 [38]: > 10 µM (inactive)
- GI50 [39]: > 10 µM (inactive)
- GI50 [40]: > 10 µM (inactive)
- GI50 [41]: > 10 µM (inactive)
- GI50 [42]: > 10 µM (inactive)
- GI50 [43]: > 10 µM (inactive)
- GI50 [44]: > 10 µM (inactive)
- GI50 [45]: > 10 µM (inactive)
- GI50 [46]: > 10 µM (inactive)
- GI50 [47]: > 10 µM (inactive)
- GI50 [48]: > 10 µM (inactive)
- GI50 [49]: > 10 µM (inactive)
- GI50 [50]: > 10 µM (inactive)
- GI50 [51]: > 10 µM (inactive)
- GI50 [52]: > 10 µM (inactive)
- GI50 [53]: > 10 µM (inactive)
- GI50 [54]: > 10 µM (inactive)

Structure (SMILES): CC(C)[C@H](NC(=O)[C@H](C(C)C)N(Cc1ccccc1)Cc1ccccc1)C(=O)N(C)[C@H](C(=O)N1CCC[C@H]1C(=O)N(C)[C@H](C)C(=O)NCc1ccc2c(c1)OCO2)C(C)C (Bn2Val-V[NMeV]P[dNMeA]-NHPiperonyl)
- GI50 [1]: 13.6 µM (inactive)
- GI50 [55]: 15.6 µM (inactive)
- GI50 [3]: 8.11 µM (inactive)
- GI50 [56]: 13.2 µM (inactive)
- GI50 [4]: 19.9 µM (inactive)
- GI50 [5]: 2.56 µM (inactive)
- GI50 [6]: 2.15 µM (inactive)
- GI50 [7]: 11.6 µM (inactive)
- GI50 [8]: 4.98 µM (inactive)
- GI50 [9]: 3.23 µM (inactive)
- GI50 [57]: 3.48 µM (inactive)
- GI50 [10]: 3.54 µM
- GI50 [11]: 1.17 µM (inactive)
- GI50 [12]: 29.9 µM (inactive)
- GI50 [14]: 3.03 µM (inactive)
- GI50 [15]: 39.1 µM (inactive)
- GI50 [16]: 3.95 µM (inactive)
- GI50 [17]: 2.59 µM (inactive)
- GI50 [18]: 4.83 µM (inactive)
- GI50 [19]: 5.9 µM (inactive)
- GI50 [20]: 25.5 µM (inactive)
- GI50 [21]: 2.25 µM (inactive)
- GI50 [22]: 6.56 µM (inactive)
- GI50 [23]: 17.2 µM (inactive)
- GI50 [24]: 12.1 µM (inactive)
- GI50 [25]: 2.73 µM (inactive)
- GI50 [26]: 21.9 µM (inactive)
- GI50 [27]: 16.8 µM (inactive)
- GI50 [28]: 16.8 µM (inactive)
- GI50 [29]: 3.93 µM (inactive)
- GI50 [30]: 14.7 µM (inactive)
- GI50 [31]: 2.91 µM (inactive)
- GI50 [32]: 5.01 µM (inactive)
- GI50 [33]: 5.85 µM (inactive)
- GI50 [34]: 4.38 µM (inactive)
- GI50 [35]: 8.61 µM (inactive)
- GI50 [36]: 3.35 µM (inactive)
- GI50 [37]: 1.99 µM (inactive)
- GI50 [58]: 17.7 µM (inactive)
- GI50 [39]: 4.94 µM (inactive)
- GI50 [40]: 3.37 µM (inactive)
- GI50 [41]: 22.4 µM (inactive)
- GI50 [42]: 5.97 µM (inactive)
- GI50 [44]: 41.6 µM (inactive)
- GI50 [46]: 18.2 µM (inactive)
- GI50 [49]: 4.49 µM (inactive)
- GI50 [51]: 18.3 µM (inactive)
- GI50 [52]: 4.33 µM (inactive)
- GI50 [53]: 5.56 µM (inactive)
- GI50 [59]: 13 µM (inactive)
- GI50 [54]: 21.6 µM (inactive)
